From patent publication US9012641B2, “Crystalline forms of Prasugrel salts” (Teva Pharmaceuticals Industries Ltd., priority 2010, dated 2015)
Counter-ions that a name gives are not always drawn.

Assay: Storage of the sample in an open Petri dish at room conditions, reanalysed on HPLC
Assay type: physicochemical
Details: room conditions (20-25° C., relative humidity 20-30%), 1 month, HPLC purity before storage 99.94%
Protocol: The sample was left in an open Petri dish at room conditions (20-25° C., relative humidity 20-30%) for 1 month and then reanalyzed on HPLC giving purity of 99.84%.

Q: For `CC(=O)Oc1cc2c(s1)CCN(C(C(=O)C1CC1)c1ccccc1F)C2` (stereo not shown) [form II of prasugrel hydrobromide, Prasugrel hydrobromide], which “HPLC purity after storage” value is on record?
A: 99.84%
